Data: the NIST ThermoML archive (doi:10.1021/je060163o)
Numbers after ± are expanded uncertainties.

How the values were obtained:
[1] = refractive index (Na D-line) (dimensionless); settings: 298.15 K; 101.33 kPa; Liquid; Standard Abbe refractometry
[2] = Liquid; for vapor or sublimation pressure: Twin ebulliometer

| SMILES | refractive index [1] | vapor or sublimation pressure ([2]; 292.33 K) | vapor or sublimation pressure ([2]; 303.83 K) | vapor or sublimation pressure ([2]; 311.14 K) | vapor or sublimation pressure ([2]; 317.9 K) | vapor or sublimation pressure ([2]; 323.09 K) | vapor or sublimation pressure ([2]; 326.8 K) | vapor or sublimation pressure ([2]; 330.56 K) | vapor or sublimation pressure ([2]; 333.94 K) | vapor or sublimation pressure ([2]; 337.18 K) | vapor or sublimation pressure ([2]; 339.97 K) | vapor or sublimation pressure ([2]; 342.3 K) | mass density ([2]; 298.15 K, 101.33 kPa) |
| --- | --- | --- | --- | --- | --- | --- | --- | --- | --- | --- | --- | --- | --- |
| CCO [ethanol] | 1.3596 ± 0.0004 | 5.59 ± 0.15 kPa | 10.86 ± 0.15 kPa | 16.15 ± 0.16 kPa | 22.84 ± 0.17 kPa | 29.41 ± 0.18 kPa | 35.11 ± 0.19 kPa | 41.76 ± 0.21 kPa | 48.61 ± 0.22 kPa | 56.06 ± 0.24 kPa | 63.2 ± 0.26 kPa | 69.73 ± 0.27 kPa | – |
| CO [methanol] | 1.3266 ± 0.0004 | – | – | – | – | – | – | – | – | – | – | – | 786.59 ± 0.62 kg/m3 |
